From patent publication US8563603B2, “Polycyclic compounds and methods related thereto” (Cornell University, priority 2008, dated 2013)

How the values were obtained:
breast cancer cell lines = assay: Alamar Blue cytotoxicity, averaged across cell lines or cell line not stated; type: cell-based, human; details: averaged across cell lines
Method: (§1) Human breast carcinoma cell line lines; SKBR-3, BT20, MB-MDA-468, MB-MDA-453, MB-MDA-231, and MCF-7 and human cancer cell lines Calu-6, Hela, HCT-116, HT-29, and A-431, obtained from ATCC (Manassas, Va.), were cultured in Dulbecco's Modified Eagle's Medium (DMEM-Sigma D-564R) supplemented with 10% Fetal Calf Serum (heat-inactivated) and antibiotics (Antibiotic Antimycotic Solution 100×, Sigma A9909). Breast cancer cell lines were chosen based on their varying amount of Epidermal Growth Factor Receptors (EGFR). Cells were routinely propagated and cultured at 37° C. in a 100% relative humidified atmosphere consisting of 5% C02 and 95% air. Cells were trypsinized with 0.05% Trypsin-0.2% EDTA (w/v) solution. All experiments were repeated at least three times.
Cells were seeded onto a standard 96-well microtiter plate at a density of 2×10^4 cells/well in 100-μl tissue culture medium. […] Each well was evaluated at seven 10-fold dilutions starting from a high of 1000 ppm. […] Following a 48-h incubation period, extracted cells were evaluated using Alamar Blue, a fluorometric/colorimetric assay that measures cell proliferation by relying on the cells metabolic activity. […] Data were analyzed immediately by visualizing color densities and/or with a standard spectrophotometer at 540 nm.

[1] = tested on: Human breast cancer cell line MB-MDA-231; assay: Annexin V FITC / PI apoptosis detection by flow cytometry, 24 h; type: cell-based
Method: Human breast cancer cell line MB-MDA-231 were cultured in Dulbecco's Modified Eagle's medium (DMEM-Sigma, D-5648), supplemented with 10% (heat-inactivated) Fetal Bovine Serum (Atlanta Biologicals, Inc.) and Antibiotic Solution, 100× (Sigma A-9909). Cells were gown at 37° C., at 5-7% CO2, and 95% humidity and were obtained from the American Type Culture Collection (ATCC). Cells were trypsinized with 0.05% Trypsin-0.2% EDTA (w/v) solution (Invitrogen Corporation, Carlsbad, Calif.).
The induction of apoptosis in MB-MDA-231 was analyzed using a well-validated Annexin V FITC apoptosis detection kit (Calbiochem), Darzynkiewicz, 1998. The phosphatidylserine (PS)-specific dye Annexin-V is used to detect apoptotic-specific changes to the organization of phospholipids leading to exposure of PS on the cell surface that precedes nuclear breakdown, DNA fragmentation, and the appearance of most apoptosis-associated molecules. For these studies cells were seeded at 25×10^4 cells/1.5 ml in a 24 well microtiter plate. Cells were allowed to adhere to plates for 24 h, and then exposed to lignans of the present invention at 5-fold dilutions of 30 μl, 6 μl, and 1.2 μl per well for 24 h. Test compounds were mixed in solution using DMSO as vehicle (10 mg extract/1 ml DMSO). Camptothecin was used as a positive control. Following the incubation period 700 μl of suspended cells were transferred to 15 ml conical tubes. Cells that remained adhered to the 24-well plates were gently washed with PBS (137 mM NaCl, 2.7 mM KCL, 4.3 mM Na2HPO4-7H2O, 1.4 mM KH2PO4, adjusted to pH 7.4), trypsinized with 1 ml of solution (0.05% Trypsin—0.2% EDTA [w/v]), and resuspended with the suspended cells/media collected in the 15 ml conical tubes from the previous step. 10 μl of media-binding reagent and 1.25 μl Annexin V-FITC was added to the 15 ml conical tubes containing both the 700 μl of suspended cells and the resuspended cells and incubated at room temperature for 15 min, at 18-24° C., in the dark. Tubes were centrifuged for 5 minutes at 1000×g at room temperature. Media was removed and cells were gently resuspended in 0.5 ml cold 1×binding buffer (dilution; 5× Binding Buffer concentrate 1:5 with dH2O) and placed on ice. 10 μl of propidium iodide was added to each tube. Cells were placed on ice away from light and analyzed immediately by flow cytometry. The dual fluorescence emissions of the respective dyes were detected in cell preparations on a BD-Biosciences FACS Aria high-speed flow cytometer/cell sorter utilizing a quartz cuvette for interrogation. To quantify the Annexin V (FL1 at 518 nm) and propidium iodide (620 nm) signals, apoptosis-induced cells (CPT) stained with FITC only and apoptosis-induced cells (CPT) labeled with only propidium iodide were utilized. Necessary adjustments were made to minimize overlap between these two measurements. Typically, 10,000-20,000 cells were scored for each sample and classified as either viable, early apoptotic, or late apoptotic or necrotic. All experiments were repeated at least three times, each in duplicate.
The principal of the Annexin V/FITC assay is that, Annexin V, an anticoagulant protein, preferentially binds negatively charged phospholipids. Early in the apoptotic process, phospholipid asymmetry is disrupted leading to the exposure of phosphatidylserine (PS) on the outer leaflet of the cytoplasmic membrane. Annexin V binds to the negatively charged calcium-dependent PS. Conjugating FITC to Annexin V with simultaneous propidium iodide (PI) staining allows bivariate analysis of intact cells. Live, healthy cells are double negative, FITC (−)/PI (−), and are seen in the lower left quadrant [A3] of FACS cytograms. Cells that are FITC (+)/PI (−) [A4] are early apoptotic. Cell populations that are advanced apoptotic or necrotic are FITC (+)/PI (+) are located in quadrant [A2]. […]

cell line MD-MBA-231 = assay: Cell cycle analysis by DNA content (hypotonic PI staining, flow cytometry); type: cell-based, human; details: 1.2, 6.0, 30.0 ppm; 24 h
Method: Twenty-four hours after exposure to compounds, 25×10^4 cells in 1.5 ml cells were simply re-suspended following either the Annexin V/FITC assay or the trypsin procedures. Cells were centrifuged at 1000-x g at room temperature and washed in 0.5 ml of hypotonic staining solution. Cells were kept a minimum of 30 min. at 4° C. in the dark. Samples were usually analyzed by flow cytometry on the same day or at 24 hrs. Resulting DNA distributions were analyzed for the proportion of cells in apoptosis and in G0/G1, S, and G2/M phases of the cell cycle. Singlet events were gated and 10,000-20,000 events were acquired within the gated region. All experiments were repeated at least three times, each in duplicate.
The cell cycle comprises steps that regulate the correct temporal sequence of events that control the growth, reproduction and differentiation of cells. The cell cycle consists of 4 phases: G0/G1, S (DNA synthesis), G2, and M (mitosis). In addition, checkpoints located in the cell cycle transition ensure that cell growth and division occur in response to appropriate signals and environment. When proliferating, if cells are subjected to DNA damage the cell cycle temporarily pauses either at G1, S or G2 phase. Arrest at these checkpoints prevents DNA replication and mitosis in the presence of unrepaired DNA damage and presumably allows time for DNA repair to occur. The proportion of cells that arrest in G1, S or G2 after damage depends on cell type, growth conditions, type of damage and the checkpoints operative in the cells. Shifts in the redistribution of phases of the cell cycle in response to various stimuli can be readily assessed by flow cytometry. DNA content analysis with the use of PI is one of the most common assays. The use of intercalating dyes to measure DNA content are the most common and are usually sufficient to determine relative shifts in the phases of the cell cycle. The hypotonic solution lyses the plasma membrane and prevents many of the aggregate problems associated with fixed cells. Propidium Iodide(PI) passes through permeabilized cell membranes and intercalates with cellular DNA. Therefore, the intensity of the PI signal is directly proportional to DNA content. DNA content experiments determine the percent induction of apoptosis and relative distribution of the cell cycle phases.
The percent of apoptotic cells (cells with fractional DNA content; sub G1 cells) were established by estimating the percentage of events showing up in sub G0. The Sub-G1 method relies on the fact that after DNA fragmentation, there are small fragments of DNA that may be eluted. However in order to be seen in the Sub G1 area, a cell must have lost enough DNA to appear there; so if cells enter apoptosis from the S or G2/M phase of the cell cycle or if there is an aneuploid population undergoing apoptosis, they may not appear in the Sub G1 peak. The number of events in sub G1 (number of nuclear fragments) provides no information on the # of cells undergoing apoptosis.

cancer cell lines = assay: Sulforhodamine B (SRB) assay, cell line not stated / average of all cell lines; type: cell-based, human; details: highest concentration; positive control averaged on all cell lines
Method: as §1
In addition to Alamar blue, Sulforhodamine B Assay (SRB) was used to determine inhibition by bound protein. Individual cell lines were seeded at varying cell densities as determined by growth rate. […] The absorbance of stained protein was read with an automated 96-well microtiter ELISA plate reader (SAFIRE) at 540 nm. Using absorbance measurement [time zero. (Tz)—control growth, and growth at each drug concentration level (Ti)], the percentage growth is calculated at each of the drug concentrations. Percent growth inhibition is calculated as: [(Ti−Tz)/Tz]×100 for concentration for which Ti<Tz.

With `CC[C@@]1(O)C(=O)OCc2c1cc1n(c2=O)Cc2cc3ccccc3nc2-1` [Camptothecin, reference compound] the “concentration of cell death / greatest inhibition, positive controls” value (breast cancer cell lines) was 7.81 ppm, the “early stage apoptosis, FITC (+)/PI (−) staining, significance” value ([1]; 1.2, 6.0, 30.0 ppm, 24 h) was “significantly increased” and the “early apoptosis activity increased over the spirocyclic lignans” value ([1]; all doses) was “at least 5%”. The “% events in sub G0 (apoptotic events)” value (cell line MD-MBA-231) was “increased and significantly induced apoptotic activity at 30.0 ppm”, the “effect on cell population in G2/M” value (cell line MD-MBA-231) was “remained at levels with untreated cells at all doses” and the “effect on cell populations in S-phase, significance” value (cell line MD-MBA-231) was “significant at 6.0 and 30.0 ppm”. The singlet count (cell line MD-MBA-231) was “reached minimal levels at 30 ppm”.
For `O=c1[nH]cc(F)c(=O)[nH]1` [5-fluorouracil, 5-Fluorouracil], the “concentration of cell death / greatest inhibition, positive controls” value (breast cancer cell lines) was “cell death at the same lower limits as cell lines BT20 and MB-MDA-453” and the inhibited cell growth (cancer cell lines) was “approximately 60%”.
